Read-outs that look alike come from different tables or passages of the source.
Legend:
[1] = system: TxB2 synthesis; experiment: TxB2 synthesis inhibition in vitro in whole blood of normal rats; format: cell-based, normal Sprague Dawley rats; conditions: Rattus norvegicus, read-out: In vitro effect on TxB2 synthesis in normal rats, IC50 (whole blood)
Procedure: (§1) The effects of a representative group of compounds of the invention were evaluated, in comparison with known compounds, on TxB2 synthesis inhibition in vitro in whole blood of normal rats, and on TxA2 antagonism in a binding assay in washed human platelets.
TxB2 Synthesis Inhibition
Blood was withdrawn from the abdominal aorta of normal Sprague Dawley rats (Charles River Italy) under light ether anaesthesia. The blood was immediately divided in portions of 0.5 ml and distributed in glass tubes each containing a concentration of the test compound, or of the reference compounds.
Samples were then allowed to clot for 1 hour at 37° C., centrifuged at 3000 rpm for 10 min, and serum collected and stored at -20° C. until assayed.

[2] = target: T1, TXA2 receptor (Homo sapiens, UniProt P21731); experiment: Displacement of [^3 H]-SQ 29.548 binding to washed human platelets (TxA2 antagonism); conditions: for affinity for the receptor: in words, compared with BM 13505 and BM 13177, binding test (washed human platelets); for IC50: washed human platelets, [^3 H]-SQ 29,548 5 nM, 30 min at 25° C., read-out: ^3 H SQ 29548 binding displacement (washed human platelet) IC50
T1 construct: endogenous in cells; host or cells: washed human platelets from blood of healthy volunteers
T1 sequence (P21731 1-343): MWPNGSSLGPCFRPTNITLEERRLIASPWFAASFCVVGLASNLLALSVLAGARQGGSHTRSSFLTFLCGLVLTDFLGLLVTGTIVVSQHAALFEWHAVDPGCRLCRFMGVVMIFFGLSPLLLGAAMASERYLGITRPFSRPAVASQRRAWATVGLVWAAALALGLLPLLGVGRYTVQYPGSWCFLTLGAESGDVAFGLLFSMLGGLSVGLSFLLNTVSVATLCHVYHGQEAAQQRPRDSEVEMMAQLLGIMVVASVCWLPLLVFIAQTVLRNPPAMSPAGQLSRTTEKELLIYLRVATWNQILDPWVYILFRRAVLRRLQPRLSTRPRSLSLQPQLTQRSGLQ
Procedure: as §1
Displacement of [^3 H]-SQ 29.548 binding to washed human platelets
Blood from healthy volunteers of both sexes who had not taken any medication for at least 10 days was collected into one-tenth volume of acid citrate dextrose containing indomethacin (28 μM). Platelet rich plasma (PRP), obtained by centrifugation of the blood at 200×g for 20 min, was washed twice (1000×g for 10 min). The platelets are then resuspended in Tyrode-Hepes buffer (pH 7.4) to a final concentration of […] and incubated for 0-60 min at 25° with [^3 H]-SQ 29,548 (5 nM). For displacement experiments various concentrations (10^-9 -10^-4 M) of competing ligands were added and incubated for 30 min at 25° C. […] After the incubation, 4 ml of ice-cold TRIS-HCl buffer (10 mM, pH 7.4) was added to each tube and the reaction mixture was immediately filtered by suction through a Whatman GF/C glass filter disc which was washed 2 times with ice-cold TRIS-HCl (4 ml) and counted for radioactivity by a Packard β-counter.
The binding data were analysed by computerized non-linear curve fitting using the Ligand program and expressed as IC50.

[3] = whole blood of normal rats, clotted 1 hour at 37° C.

IC50 [2] [nM] | Compound | IC50 [1, 3] [nM] | affinity for the receptor [2] | IC50 ([1]; 1 h) [nM]
6 | O=C(O)CC1CCCc2c(n(Cc3ccc(-n4ccnc4)cc3)c3ccc(F)cc23)C1 (stereo not shown) [FCE 27041, 2-Fluoro-5-[[4-(1H-imidazol-1-yl)phenyl]methyl]-5,6,7,8,9,10-hexahydrocyclohept[b]indole-7-acetic acid] | 198 | affinity for the receptor greater than those of compounds BM 13505 and BM 13177 | –
– | CC(=O)Oc1ccccc1C(=O)O [ASA, acetylsalicilic acid] | – | – | 31000
– | O=C(O)c1ccc(OCCn2ccnc2)cc1 [Dazoxiben] | 1200 | – | –
6.6 | O=C(O)CC1CCCc2c1n(Cc1ccc(-n3ccnc3)cc1)c1ccc(F)cc21 (stereo not shown) [FCE 26643, 6-Fluoro-9-[[4-(1H-imidazol-1-yl)phenyl]methyl]-1,2,3,4-tetrahydrocarbazol-1-yl-acetic acid] | – | affinity for the receptor greater than those of compounds BM 13505 and BM 13177 | –

Source: patent US5238953A, “N-imidazolyl derivatives of substituted tetrahydrocarbazole and cyclohept (B) indole” (Farmitalia Carlo Erba S.R.L., priority 1991, dated 1993)
